This note sets out measurements from publication PMC10444810, “Induction of open-form bile canaliculus formation by hepatocytes for evaluation of biliary drug excretion” (Communications Biology, 2023).

Format in all cases: in vitro ADME
Common to all, as to details: for Enzyme activity, Mean: mean of Well-1 to Well-4

The target of one data set is T1, CYP2C9 (Homo sapiens, UniProt P11712).
T1 construct: host or cells: PXB-cells (icHep: JFC, HUM181001B; sandwich culture: JFC)
Briefly: Metabolic assay, cocktail substrate method (diclofenac to 4’-hydroxydiclofenac). Here is the method:
(§1) The metabolic activity of icHep and sandwich-cultured PXB-cells was measured using the cocktail substrate method of drug-metabolizing enzymes. The components of the cocktail are summarized in Supplementary Table 1. Assays were initiated by treating cells with TB containing cocktail substrates. Time point of each substrate was set when a linear increase in its metabolite production was observed. Concentrations of metabolites produced in the medium were measured by liquid chromatography-mass spectrometry (LC-MS/MS).

For the next data set, the target named is T2, CYP2C19 (Homo sapiens, UniProt P33261).
T2 construct: host or cells: PXB-cells (icHep: JFC, HUM181001B; sandwich culture: JFC)
Briefly: Metabolic assay, cocktail substrate method ((S)-mephenytoin to 4’-hydroxymephenytoin). Here is the method:
as §1

The next data set addresses T3, CYP2B6 (Homo sapiens, UniProt P20813).
T3 construct: host or cells: PXB-cells (icHep: JFC, HUM181001B; sandwich culture: JFC)
T3 sequence (P20813 1-491): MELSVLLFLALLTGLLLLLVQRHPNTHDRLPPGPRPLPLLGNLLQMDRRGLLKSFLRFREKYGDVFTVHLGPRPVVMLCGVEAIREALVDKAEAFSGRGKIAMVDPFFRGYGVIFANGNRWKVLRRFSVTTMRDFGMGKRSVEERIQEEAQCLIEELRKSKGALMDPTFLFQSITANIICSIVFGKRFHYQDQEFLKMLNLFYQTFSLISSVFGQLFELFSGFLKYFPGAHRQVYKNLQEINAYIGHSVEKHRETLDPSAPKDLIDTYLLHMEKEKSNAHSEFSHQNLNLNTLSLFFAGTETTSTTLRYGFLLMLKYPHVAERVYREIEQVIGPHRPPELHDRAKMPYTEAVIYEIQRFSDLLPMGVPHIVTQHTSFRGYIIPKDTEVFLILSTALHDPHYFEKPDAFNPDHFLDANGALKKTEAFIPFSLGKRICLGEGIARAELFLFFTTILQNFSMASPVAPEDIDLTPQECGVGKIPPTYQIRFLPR
Briefly: Metabolic assay, cocktail substrate method (bupropion to hydroxybupropion). Here is the method: as §1

Where [1] appears, read: PXB-cells (JFC), incubation time 15 min, single wells.
The mark [2] stands for this setting: PXB-cells (JFC), incubation time 45 min, single wells.
[3] abbreviates: PXB-cells (JFC), incubation time 60 min, single wells.
The mark [4] stands for this setting: PXB-cells (JFC), incubation time 90 min, single wells.
Where [5] appears, read: icHep (HUM18100B), incubation time 15 min, single wells.
Where [6] appears, read: icHep (HUM18100B), incubation time 30 min, single wells.
[7] abbreviates: icHep (HUM18100B), incubation time 45 min, single wells.
Setting [8] is: icHep (HUM18100B), incubation time 60 min, single wells.
[9] abbreviates: icHep (HUM18100B), incubation time 90 min, single wells.
Setting [10] is: icHep (HUM18100B), rate per single well.
Setting [11] is: icHep (JFC), incubation time 15 min, single wells.
Where [12] appears, read: icHep (JFC), incubation time 30 min, single wells.
The mark [13] stands for this setting: icHep (JFC), incubation time 45 min, single wells.
Where [14] appears, read: icHep (JFC), incubation time 60 min, single wells.
[15] abbreviates: icHep (JFC), incubation time 90 min, single wells.
[16] abbreviates: icHep (JFC), rate per single well.

The structures appear in SMILES notation. “And” between values parts separate entries of the source, which are not always exact repeats. Identical values can stand only once.

T2 sequence (P33261 whole entry): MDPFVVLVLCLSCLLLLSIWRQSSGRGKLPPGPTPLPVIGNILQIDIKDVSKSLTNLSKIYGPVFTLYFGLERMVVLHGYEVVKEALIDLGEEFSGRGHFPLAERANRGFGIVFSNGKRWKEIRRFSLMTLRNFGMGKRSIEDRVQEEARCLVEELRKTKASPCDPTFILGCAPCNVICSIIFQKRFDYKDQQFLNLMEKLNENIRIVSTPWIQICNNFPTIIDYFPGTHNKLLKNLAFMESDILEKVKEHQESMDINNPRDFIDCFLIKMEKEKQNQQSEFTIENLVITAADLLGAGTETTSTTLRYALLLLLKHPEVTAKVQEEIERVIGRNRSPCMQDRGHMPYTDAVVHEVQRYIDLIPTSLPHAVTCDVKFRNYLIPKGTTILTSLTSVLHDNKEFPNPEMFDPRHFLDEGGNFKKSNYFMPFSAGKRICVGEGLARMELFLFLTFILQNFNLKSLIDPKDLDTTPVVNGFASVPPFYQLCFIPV
T1 sequence (P11712 whole entry): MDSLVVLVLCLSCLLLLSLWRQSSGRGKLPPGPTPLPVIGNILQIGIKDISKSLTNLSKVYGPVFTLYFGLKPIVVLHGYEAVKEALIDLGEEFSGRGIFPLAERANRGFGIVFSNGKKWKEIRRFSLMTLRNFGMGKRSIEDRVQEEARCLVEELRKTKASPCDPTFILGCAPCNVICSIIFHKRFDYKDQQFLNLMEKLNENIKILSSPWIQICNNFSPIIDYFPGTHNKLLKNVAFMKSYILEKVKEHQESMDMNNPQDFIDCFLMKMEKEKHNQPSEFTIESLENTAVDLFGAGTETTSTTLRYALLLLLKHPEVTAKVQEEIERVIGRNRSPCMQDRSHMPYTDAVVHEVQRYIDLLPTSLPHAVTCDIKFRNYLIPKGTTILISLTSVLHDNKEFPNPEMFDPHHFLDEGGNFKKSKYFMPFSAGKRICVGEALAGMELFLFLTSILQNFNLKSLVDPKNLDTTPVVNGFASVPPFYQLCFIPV

For the molecule `O=C(O)Cc1ccccc1Nc1c(Cl)cc(O)cc1Cl` [4'-Hydroxydiclofenac], the Enzyme activity on CYP2C9 (setting [1]) was 32.4909 pmol/106 cells and 28.9867 pmol/106 cells and 32.417 pmol/106 cells and 39.4949 pmol/106 cells; at CYP2C9 (setting [2]), 103.35 pmol/106 cells and 157.866 pmol/106 cells and 142.816 pmol/106 cells and 89.3242 pmol/106 cells; at CYP2C9 (setting [3]) it was 194.793 pmol/106 cells and 123.239 pmol/106 cells and 152.615 pmol/106 cells and 131.028 pmol/106 cells; on CYP2C9 (setting [4]), 221.365 pmol/106 cells and 186.616 pmol/106 cells and 184.241 pmol/106 cells and 181.726 pmol/106 cells; at CYP2C9 (setting [5]), 62.619 pmol/106 cells and 66.4901 pmol/106 cells and 58.8292 pmol/106 cells and 61.6593 pmol/106 cells; on CYP2C9 (setting [6]), 81.779 pmol/106 cells and 78.031 pmol/106 cells and 78.5116 pmol/106 cells and 74.8686 pmol/106 cells. The Enzyme activity is 182.486 pmol/106 cells and 164.871 pmol/106 cells and 179.779 pmol/106 cells and 151.258 pmol/106 cells at CYP2C9 (setting [7]); 261.919 pmol/106 cells and 224.09 pmol/106 cells and 240.209 pmol/106 cells and 233.857 pmol/106 cells at CYP2C9 (setting [8]); 338.304 pmol/106 cells and 344.261 pmol/106 cells and 316.721 pmol/106 cells and 314.843 pmol/106 cells on CYP2C9 (setting [9]); 6.00 pmol/min/106 cells and 4.87 pmol/min/106 cells and 5.39 pmol/min/106 cells and 5.30 pmol/min/106 cells at CYP2C9 (setting [10]); 37.2763 pmol/106 cells and 45.1543 pmol/106 cells and 35.8326 pmol/106 cells and 34.722 pmol/106 cells at CYP2C9 (setting [11]); 59.5169 pmol/106 cells and 77.189 pmol/106 cells and 52.7871 pmol/106 cells and 61.7238 pmol/106 cells at CYP2C9 (setting [12]). The Enzyme activity on CYP2C9 (setting [13]) was 104.976 pmol/106 cells and 107.851 pmol/106 cells and 132.309 pmol/106 cells and 91.4661 pmol/106 cells; at CYP2C9 (setting [14]), 189.516 pmol/106 cells and 192.792 pmol/106 cells and 199.605 pmol/106 cells and 200.079 pmol/106 cells; at CYP2C9 (setting [15]) it was 261.512 pmol/106 cells and 227.854 pmol/106 cells and 218.992 pmol/106 cells and 224.098 pmol/106 cells; on CYP2C9 (setting [16]), 4.33 pmol/min/106 cells and 3.85 pmol/min/106 cells and 4.89 pmol/min/106 cells and 4.61 pmol/min/106 cells. In addition, the “Enzyme activity, Mean” value on CYP2C9 (PXB-cells (JFC)) stood at 3.17 pmol/min/106 cells; on CYP2C9 (icHep (HUM18100B)), 5.39 pmol/min/106 cells; on CYP2C9 (icHep (JFC)), 4.42 pmol/min/106 cells.
With `CC[C@@]1(c2ccc(O)cc2)NC(=O)N(C)C1=O` [4'-hydroxymephenytoin], the Enzyme activity is 56.4054 pmol/106 cells and 48.3281 pmol/106 cells and 62.3033 pmol/106 cells and 62.1838 pmol/106 cells on CYP2C19 (PXB-cells (JFC), incubation time 30 min, single wells); 95.7591 pmol/106 cells and 93.7057 pmol/106 cells and 89.6102 pmol/106 cells and 94.8294 pmol/106 cells at CYP2C19 (setting [2]); 136.786 pmol/106 cells and 120.497 pmol/106 cells and 123.843 pmol/106 cells and 115.035 pmol/106 cells on CYP2C19 (setting [3]); 86.2332 pmol/106 cells and 112.727 pmol/106 cells and 89.0355 pmol/106 cells and 99.3009 pmol/106 cells on CYP2C19 (setting [4]); 50.5312 pmol/106 cells and 52.3394 pmol/106 cells and 56.2209 pmol/106 cells and 49.5383 pmol/106 cells at CYP2C19 (setting [5]); 80.4095 pmol/106 cells and 100.579 pmol/106 cells and 91.6841 pmol/106 cells and 101.877 pmol/106 cells on CYP2C19 (setting [6]). The Enzyme activity is 142.367 pmol/106 cells and 129.072 pmol/106 cells and 120.304 pmol/106 cells and 122.788 pmol/106 cells on CYP2C19 (setting [7]); 162.513 pmol/106 cells and 158.829 pmol/106 cells and 171.479 pmol/106 cells and 144.395 pmol/106 cells at CYP2C19 (setting [8]); 188.684 pmol/106 cells and 187.153 pmol/106 cells and 171.43 pmol/106 cells and 198.851 pmol/106 cells at CYP2C19 (setting [9]); 3.06 pmol/min/106 cells and 2.56 pmol/min/106 cells and 2.14 pmol/min/106 cells and 2.44 pmol/min/106 cells at CYP2C19 (setting [10]); 42.1708 pmol/106 cells and 39.5525 pmol/106 cells and 21.6896 pmol/106 cells and 37.3866 pmol/106 cells at CYP2C19 (setting [11]); 65.4216 pmol/106 cells and 67.8652 pmol/106 cells and 74.7797 pmol/106 cells and 75.4174 pmol/106 cells at CYP2C19 (setting [12]). Moreover, the Enzyme activity at CYP2C19 (setting [13]) was 91.82 pmol/106 cells and 75.2152 pmol/106 cells and 103.29 pmol/106 cells and 100.957 pmol/106 cells; at CYP2C19 (setting [14]), 121.361 pmol/106 cells and 85.9573 pmol/106 cells and 140.345 pmol/106 cells and 108.521 pmol/106 cells; at CYP2C19 (setting [15]) it was 124.213 pmol/106 cells and 122.549 pmol/106 cells and 116.257 pmol/106 cells and 126.058 pmol/106 cells. The entries for the “Enzyme activity, Mean” value on CYP2C19 (PXB-cells (JFC)), at CYP2C19 (icHep (HUM18100B)) and at CYP2C19 (icHep (JFC)) were 2.25 pmol/min/106 cells, 2.55 pmol/min/106 cells and 2.38 pmol/min/106 cells, respectively.
On to `C[C@H]1NC(C)(C)CO[C@]1(O)c1cccc(Cl)c1` [Hydroxybupropion], for which the Enzyme activity at CYP2B6 (setting [1]) is 28.7722 pmol/106 cells and 21.7302 pmol/106 cells and 27.8435 pmol/106 cells and 35.831 pmol/106 cells; at CYP2B6 (setting [2]), 59.3541 pmol/106 cells and 57.6847 pmol/106 cells and 69.4473 pmol/106 cells and 46.5889 pmol/106 cells; on CYP2B6 (setting [3]) it was 62.0864 pmol/106 cells and 73.8816 pmol/106 cells and 59.3241 pmol/106 cells and 58.6637 pmol/106 cells; at CYP2B6 (setting [4]) it was 76.5226 pmol/106 cells and 51.4054 pmol/106 cells and 51.8001 pmol/106 cells and 50.3819 pmol/106 cells; at CYP2B6 (setting [5]) it was 25.5794 pmol/106 cells and 30.4047 pmol/106 cells and 24.7422 pmol/106 cells and 24.915 pmol/106 cells; at CYP2B6 (setting [6]), 35.9071 pmol/106 cells and 54.335 pmol/106 cells and 43.958 pmol/106 cells and 62.1937 pmol/106 cells. Also, the Enzyme activity at CYP2B6 (setting [7]) is 67.877 pmol/106 cells and 59.438 pmol/106 cells and 65.4881 pmol/106 cells and 59.5632 pmol/106 cells; at CYP2B6 (setting [8]) it was 76.2731 pmol/106 cells and 66.7099 pmol/106 cells and 66.2746 pmol/106 cells and 64.1847 pmol/106 cells; on CYP2B6 (setting [9]), 84.2201 pmol/106 cells and 81.8175 pmol/106 cells and 75.5651 pmol/106 cells and 70.6836 pmol/106 cells; at CYP2B6 (setting [10]), 1.41 pmol/min/106 cells and 0.968 pmol/min/106 cells and 1.36 pmol/min/106 cells and 1.15 pmol/min/106 cells; at CYP2B6 (setting [11]) it was 26.9509 pmol/106 cells and 26.6361 pmol/106 cells and 28.1971 pmol/106 cells and 21.5678 pmol/106 cells; on CYP2B6 (setting [12]), 50.8052 pmol/106 cells and 52.8459 pmol/106 cells and 41.4458 pmol/106 cells and 41.1487 pmol/106 cells. The Enzyme activity at CYP2B6 (setting [13]) is 61.1962 pmol/106 cells and 63.9863 pmol/106 cells and 63.4142 pmol/106 cells and 59.0445 pmol/106 cells; at CYP2B6 (setting [14]), 56.6821 pmol/106 cells and 56.5302 pmol/106 cells and 54.8514 pmol/106 cells and 60.04 pmol/106 cells; on CYP2B6 (setting [15]), 69.6732 pmol/106 cells and 73.6155 pmol/106 cells and 56.0547 pmol/106 cells and 49.9876 pmol/106 cells; on CYP2B6 (setting [16]), 1.14 pmol/min/106 cells and 1.25 pmol/min/106 cells and 1.17 pmol/min/106 cells. Further, the figures for the “Enzyme activity, Mean” value at CYP2B6 (PXB-cells (JFC)), at CYP2B6 (icHep (HUM18100B)) and at CYP2B6 (icHep (JFC)) were 0.991 pmol/min/106 cells, 1.22 pmol/min/106 cells and 1.20 pmol/min/106 cells, respectively.
